Data as given in patent US20200338045A1, “ISOINDOLINE COMPOSITIONS AND METHODS FOR TREATING NEURODEGENERATIVE DISEASE” (priority 2017, published 2020).

Test: Phase 1 MAD safety (adverse events, laboratory, ECG)
Format: in vivo, human
Protocol: In Part B, healthy young subjects in each cohort received the same dose once daily for 14 days after overnight fasting. Cohort dosing started at 280 mg, followed by 560 mg and 840 mg in subsequent cohorts. In each cohort, eight subjects received drug and two received placebo. A fourth cohort of healthy elderly subjects (≥65 years old) received a 560 mg dose vs. placebo daily for 14 days (seven active, two placebo).
Subjects were dosed in the morning with 240 mL of water after an 8-hour fast, and remained in a semi-reclined position for 1 hour and fasting for 2 hours post-administration, except for the fed cohort in Part A. Subjects in each MAD cohort were confined to the clinical facility from check-in on Day 0 until the pharmacokinetic sample was collected on Day 16, 48 hours after administration of the last dose on Day 14. Subjects returned to the clinical facility for follow-up visits on Days 24 and 35.
Safety variables, including incidence of adverse events (AEs), vital signs, clinical laboratory findings, 12-lead electrocardiographs (ECGs), physical examination, and affective and cognitive measures (Part B only), were summarized for all subjects who received study drug.

[1] = MAD, 280 mg, Age ≤64 yrs (n = 8)
[2] = MAD, 560 mg, Age ≤64 yrs (n = 8)
[3] = MAD, 560 mg, Age ≥65 years (n = 7)
[4] = MAD, 840 mg, Age ≤64 yrs (n = 8)

CC(C)(C)Oc1cc(CCC(C)(C)N2Cc3ccc(S(C)(=O)=O)cc3C2)ccc1O [CT1812]
vomiting incidence (840 mg dose, two instances): 25% | serious AE (SAE) (840 mg, respiratory picornavirus infection deemed unrelated to study treatment): One serious AE | tolerability, multiple dose (280 to 840 mg QD 14 days (young), 560 mg (elderly)): safe and well tolerated | ECG parameters or changes (MAD): No ECG parameters or changes were assessed as clinically significant | Number of Subjects with at least one Treatment-Emergent AE: All TEAEs [1]: 7 | Number of Subjects with at least one Treatment-Emergent AE: Dizziness [1]: 1 | Number of Subjects with at least one Treatment-Emergent AE: Dyspepsia [1]: 1 | Number of Subjects with at least one Treatment-Emergent AE: Headache [1]: 2 | Number of Subjects with at least one Treatment-Emergent AE: Nausea [1]: 1 | Number of Subjects with at least one Treatment-Emergent AE: Upper respiratory tract infection [1]: 5 | Subjects (%) with at least one Treatment-Emergent AE: All TEAEs [1]: (88%) | Subjects (%) with at least one Treatment-Emergent AE: Dizziness [1]: (13%) | Subjects (%) with at least one Treatment-Emergent AE: Dyspepsia [1]: (13%) | Subjects (%) with at least one Treatment-Emergent AE: Headache [1]: (25%) | Subjects (%) with at least one Treatment-Emergent AE: Nausea [1]: (13%) | Subjects (%) with at least one Treatment-Emergent AE: Upper respiratory tract infection [1]: (63%) | Number of Subjects with at least one Treatment-Emergent AE: All TEAEs [2]: 7 | Number of Subjects with at least one Treatment-Emergent AE: Catheter site phlebitis [2]: 1 | Number of Subjects with at least one Treatment-Emergent AE: Dyspepsia [2]: 1 | Number of Subjects with at least one Treatment-Emergent AE: Headache [2]: 1 | Number of Subjects with at least one Treatment-Emergent AE: Procedural pain [2]: 4 | Number of Subjects with at least one Treatment-Emergent AE: Upper respiratory tract infection [2]: 1 | Subjects (%) with at least one Treatment-Emergent AE: All TEAEs [2]: (88%) | Subjects (%) with at least one Treatment-Emergent AE: Catheter site phlebitis [2]: (13%) | Subjects (%) with at least one Treatment-Emergent AE: Dyspepsia [2]: (13%) | Subjects (%) with at least one Treatment-Emergent AE: Headache [2]: (13%) | Subjects (%) with at least one Treatment-Emergent AE: Procedural pain [2]: (50%) | Subjects (%) with at least one Treatment-Emergent AE: Upper respiratory tract infection [2]: (13%) | Number of Subjects with at least one Treatment-Emergent AE: All TEAEs [3]: 5 | Number of Subjects with at least one Treatment-Emergent AE: Back pain [3]: 1 | Number of Subjects with at least one Treatment-Emergent AE: Dizziness [3]: 1 | Number of Subjects with at least one Treatment-Emergent AE: Headache [3]: 3 | Subjects (%) with at least one Treatment-Emergent AE: All TEAEs [3]: (71%) | Subjects (%) with at least one Treatment-Emergent AE: Back pain [3]: (14%) | Subjects (%) with at least one Treatment-Emergent AE: Dizziness [3]: (14%) | Subjects (%) with at least one Treatment-Emergent AE: Headache [3]: (43%) | Number of Subjects with at least one Treatment-Emergent AE: All TEAEs [4]: 6 | Number of Subjects with at least one Treatment-Emergent AE: Back pain [4]: 1 | Number of Subjects with at least one Treatment-Emergent AE: Catheter site phlebitis [4]: 1 | Number of Subjects with at least one Treatment-Emergent AE: Dizziness [4]: 1 | Number of Subjects with at least one Treatment-Emergent AE: Dyspepsia [4]: 1 | Number of Subjects with at least one Treatment-Emergent AE: Headache [4]: 4 | Number of Subjects with at least one Treatment-Emergent AE: Nausea [4]: 1 | Number of Subjects with at least one Treatment-Emergent AE: Procedural pain [4]: 2 | Number of Subjects with at least one Treatment-Emergent AE: Upper respiratory tract infection [4]: 2 | Number of Subjects with at least one Treatment-Emergent AE: Vomiting [4]: 2 | Subjects (%) with at least one Treatment-Emergent AE: All TEAEs [4]: (75%) | Subjects (%) with at least one Treatment-Emergent AE: Back pain [4]: (13%) | Subjects (%) with at least one Treatment-Emergent AE: Catheter site phlebitis [4]: (13%) | Subjects (%) with at least one Treatment-Emergent AE: Dizziness [4]: (13%) | Subjects (%) with at least one Treatment-Emergent AE: Dyspepsia [4]: (13%) | Subjects (%) with at least one Treatment-Emergent AE: Headache [4]: (50%) | Subjects (%) with at least one Treatment-Emergent AE: Nausea [4]: (13%) | Subjects (%) with at least one Treatment-Emergent AE: Procedural pain [4]: (25%)
